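Each compound was tested at five concentrations against cells in 96-well plates for 48 hours. At the GI50, growth is halved.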 Calls of active or inactive are those of the source. No stated cut-off is given here; in the data, active = GI50 up to about 1.1 µM and inactive = higher.
Assays:
Assay in all cases: inhibition of tumour cell growth, NCI panel, 48 h
SW-620 = test system: SW-620
NCI-H226 = test system: NCI-H226
LOX IMVI = test system: LOX IMVI
DMS-273 = test system: DMS-273
DLD-1 = test system: DLD-1
CCRF-CEM = test system: CCRF-CEM
HCT-116 = test system: HCT-116
786-0 = test system: 786-0
EKVX = test system: EKVX
KM-20L2 = test system: KM-20L2
SK-OV-3 = test system: SK-OV-3
RPMI-8226 = test system: RPMI-8226
HT-29 = test system: HT-29
SF-295 = test system: SF-295
SK-MEL-5 = test system: SK-MEL-5
XF498 = test system: XF498
HOP-18 = test system: HOP-18
HL-60 = test system: HL-60
HOP-62 = test system: HOP-62
SK-MEL-2 = test system: SK-MEL-2
M19-MEL = test system: M19-MEL
SNB-19 = test system: SNB-19
UACC-257 = test system: UACC-257
MOLT-4 = test system: MOLT-4
U-251 = test system: U-251
UACC-62 = test system: UACC-62
KM12 = test system: KM12
UO-31 = test system: UO-31
M14 = test system: M14
TK-10 = test system: TK-10
NCI-H460 = test system: NCI-H460
Malme-3M = test system: Malme-3M
RXF 393 = test system: RXF 393
A549 = test system: A549
DMS-114 = test system: DMS-114
OVCAR-8 = test system: OVCAR-8
NCI-H522 = test system: NCI-H522
HCT-15 = test system: HCT-15
IGROV-1 = test system: IGROV-1
SN12C = test system: SN12C
OVCAR-3 = test system: OVCAR-3
ACHN = test system: ACHN
SNB-75 = test system: SNB-75
K562 = test system: K562
SK-MEL-28 = test system: SK-MEL-28
SF-539 = test system: SF-539
NCI-H23 = test system: NCI-H23
COLO 205 = test system: COLO 205
CAKI-1 = test system: CAKI-1
A498 = test system: A498
SR = test system: SR
SNB-78 = test system: SNB-78
SF-268 = test system: SF-268
HOP-92 = test system: HOP-92
OVCAR-4 = test system: OVCAR-4
HCC 2998 = test system: HCC 2998
OVCAR-5 = test system: OVCAR-5
LXFL 529 = test system: LXFL 529

With C/C(=N\NC(=O)CC(=O)Nc1ccc(C)cc1)c1cc2ccccc2oc1=O the GI50 (SW-620) was > 100 µM (inactive), the GI50 (NCI-H226) was > 100 µM (inactive) and the GI50 (LOX IMVI) was > 100 µM (inactive). For the same molecule, the GI50 (DMS-273) was > 100 µM (inactive), the GI50 (DLD-1) was > 100 µM (inactive) and the GI50 (CCRF-CEM) was > 100 µM (inactive). The GI50 (HCT-116) was > 100 µM (inactive), the GI50 (786-0) was > 100 µM (inactive) and the GI50 (EKVX) was > 100 µM (inactive). The GI50 (KM-20L2) was > 100 µM (inactive), the GI50 (SK-OV-3) was > 100 µM (inactive) and the GI50 (RPMI-8226) was > 100 µM (inactive). The GI50 (HT-29) was > 100 µM (inactive), the GI50 (SF-295) was > 100 µM (inactive) and the GI50 (SK-MEL-5) was > 100 µM (inactive). The GI50 (XF498) was 1.67 µM (inactive), the GI50 (HOP-18) was 68.2 µM (inactive) and the GI50 (HL-60) was > 100 µM (inactive). The GI50 (HOP-62) was > 100 µM (inactive), the GI50 (SK-MEL-2) was > 100 µM (inactive) and the GI50 (M19-MEL) was > 100 µM (inactive). The GI50 (SNB-19) was > 100 µM (inactive), the GI50 (UACC-257) was > 100 µM (inactive) and the GI50 (MOLT-4) was > 100 µM (inactive). For the same molecule, the GI50 (U-251) was > 100 µM (inactive), the GI50 (UACC-62) was > 100 µM (inactive) and the GI50 (KM12) was > 100 µM (inactive). For the same molecule, the GI50 (UO-31) was > 100 µM (inactive), the GI50 (M14) was > 100 µM (inactive) and the GI50 (TK-10) was > 100 µM (inactive). For the same molecule, the GI50 (NCI-H460) was > 100 µM (inactive), the GI50 (Malme-3M) was 38.3 µM (inactive) and the GI50 (RXF 393) was 89.1 µM (inactive). The GI50 (A549) was > 100 µM (inactive), the GI50 (DMS-114) was > 100 µM (inactive) and the GI50 (OVCAR-8) was > 100 µM (inactive). The GI50 (NCI-H522) was > 100 µM (inactive), the GI50 (HCT-15) was > 100 µM and the GI50 (IGROV-1) was > 100 µM (inactive). For the same molecule, the GI50 (SN12C) was > 100 µM (inactive), the GI50 (OVCAR-3) was > 100 µM (inactive) and the GI50 (ACHN) was > 100 µM (inactive). For the same molecule, the GI50 (SNB-75) was 20.2 µM (inactive), the GI50 (K562) was > 100 µM (inactive) and the GI50 (SK-MEL-28) was > 100 µM (inactive). The GI50 (SF-539) was > 100 µM (inactive), the GI50 (NCI-H23) was > 100 µM (inactive) and the GI50 (COLO 205) was > 100 µM (inactive).

With CCOC(=O)c1ccc(-n2c(SCC)nc3sc(C)c(C)c3c2=O)cc1 the GI50 (SW-620) was > 100 µM (inactive), the GI50 (NCI-H226) was > 100 µM (inactive) and the GI50 (LOX IMVI) was > 100 µM (inactive). The GI50 (DMS-273) was > 100 µM (inactive), the GI50 (DLD-1) was > 100 µM (inactive) and the GI50 (CCRF-CEM) was > 100 µM (inactive). The GI50 (HCT-116) was > 100 µM (inactive), the GI50 (786-0) was 85.9 µM (inactive) and the GI50 (EKVX) was > 100 µM (inactive). For the same molecule, the GI50 (KM-20L2) was > 100 µM (inactive), the GI50 (SK-OV-3) was > 100 µM (inactive) and the GI50 (RPMI-8226) was > 100 µM (inactive). The GI50 (HT-29) was > 100 µM (inactive), the GI50 (SF-295) was > 100 µM (inactive) and the GI50 (SK-MEL-5) was > 100 µM (inactive). The GI50 (XF498) was > 100 µM (inactive), the GI50 (HOP-18) was > 100 µM (inactive) and the GI50 (HL-60) was > 100 µM (inactive). For the same molecule, the GI50 (HOP-62) was > 100 µM (inactive), the GI50 (CAKI-1) was > 100 µM (inactive) and the GI50 (SK-MEL-2) was > 100 µM (inactive). For the same molecule, the GI50 (SNB-19) was > 100 µM (inactive), the GI50 (A498) was 25.2 µM (inactive) and the GI50 (UACC-257) was > 100 µM (inactive). The GI50 (MOLT-4) was > 10 µM (inactive), the GI50 (U-251) was > 100 µM (inactive) and the GI50 (SR) was > 100 µM (inactive). The GI50 (UACC-62) was > 100 µM (inactive), the GI50 (KM12) was > 100 µM (inactive) and the GI50 (UO-31) was > 100 µM (inactive). For the same molecule, the GI50 (SNB-78) was > 100 µM (inactive), the GI50 (M14) was > 100 µM (inactive) and the GI50 (TK-10) was > 100 µM (inactive). For the same molecule, the GI50 (NCI-H460) was > 100 µM (inactive), the GI50 (Malme-3M) was > 100 µM (inactive) and the GI50 (RXF 393) was 94.8 µM (inactive). The GI50 (A549) was > 100 µM (inactive), the GI50 (DMS-114) was > 100 µM (inactive) and the GI50 (SF-268) was > 100 µM (inactive). The GI50 (OVCAR-8) was 68.7 µM (inactive), the GI50 (HOP-92) was 50.7 µM (inactive) and the GI50 (NCI-H522) was > 100 µM (inactive). For the same molecule, the GI50 (OVCAR-4) was 53.8 µM (inactive), the GI50 (HCT-15) was > 100 µM and the GI50 (IGROV-1) was > 100 µM (inactive). For the same molecule, the GI50 (SN12C) was > 100 µM (inactive), the GI50 (OVCAR-3) was 40.6 µM (inactive) and the GI50 (ACHN) was > 100 µM (inactive). For the same molecule, the GI50 (HCC 2998) was > 100 µM (inactive), the GI50 (SNB-75) was 36.7 µM (inactive) and the GI50 (OVCAR-5) was > 100 µM (inactive). The GI50 (K562) was > 100 µM (inactive), the GI50 (SK-MEL-28) was > 100 µM (inactive) and the GI50 (SF-539) was > 100 µM (inactive). For the same molecule, the GI50 (NCI-H23) was > 100 µM (inactive) and the GI50 (COLO 205) was > 100 µM (inactive).

With COC(=O)CCC(=O)Nc1cc(Cl)ccc1Cl the GI50 (SW-620) was > 100 µM (inactive), the GI50 (NCI-H226) was > 100 µM (inactive) and the GI50 (LOX IMVI) was > 100 µM (inactive). The GI50 (DLD-1) was > 100 µM (inactive), the GI50 (CCRF-CEM) was > 100 µM (inactive) and the GI50 (HCT-116) was > 100 µM (inactive). The GI50 (786-0) was > 100 µM (inactive), the GI50 (EKVX) was > 100 µM (inactive) and the GI50 (KM-20L2) was > 100 µM (inactive). The GI50 (SK-OV-3) was > 100 µM (inactive), the GI50 (RPMI-8226) was > 100 µM (inactive) and the GI50 (HT-29) was > 100 µM (inactive). The GI50 (SF-295) was > 100 µM (inactive), the GI50 (SK-MEL-5) was > 100 µM (inactive) and the GI50 (XF498) was > 100 µM (inactive). For the same molecule, the GI50 (HOP-18) was > 100 µM (inactive), the GI50 (HL-60) was > 100 µM (inactive) and the GI50 (HOP-62) was > 100 µM (inactive). For the same molecule, the GI50 (CAKI-1) was > 100 µM (inactive), the GI50 (SK-MEL-2) was > 100 µM (inactive) and the GI50 (M19-MEL) was > 100 µM (inactive). The GI50 (SNB-19) was > 100 µM (inactive), the GI50 (UACC-257) was > 100 µM (inactive) and the GI50 (MOLT-4) was > 100 µM (inactive). For the same molecule, the GI50 (U-251) was > 100 µM (inactive), the GI50 (SR) was > 100 µM (inactive) and the GI50 (UACC-62) was > 100 µM (inactive). The GI50 (KM12) was > 100 µM (inactive), the GI50 (UO-31) was > 100 µM (inactive) and the GI50 (SNB-78) was > 100 µM (inactive). For the same molecule, the GI50 (M14) was > 100 µM (inactive), the GI50 (TK-10) was > 10 µM (inactive) and the GI50 (NCI-H460) was > 100 µM (inactive). For the same molecule, the GI50 (Malme-3M) was > 100 µM (inactive), the GI50 (RXF 393) was 30.2 µM (inactive) and the GI50 (A549) was > 100 µM (inactive). For the same molecule, the GI50 (DMS-114) was > 100 µM (inactive), the GI50 (SF-268) was > 100 µM (inactive) and the GI50 (OVCAR-8) was > 100 µM (inactive). For the same molecule, the GI50 (HOP-92) was > 100 µM (inactive), the GI50 (NCI-H522) was > 100 µM (inactive) and the GI50 (OVCAR-4) was > 100 µM (inactive). For the same molecule, the GI50 (HCT-15) was > 100 µM, the GI50 (IGROV-1) was > 100 µM (inactive) and the GI50 (SN12C) was > 100 µM (inactive). The GI50 (OVCAR-3) was > 100 µM (inactive), the GI50 (ACHN) was > 100 µM (inactive) and the GI50 (HCC 2998) was > 100 µM (inactive). The GI50 (OVCAR-5) was > 100 µM (inactive), the GI50 (LXFL 529) was > 100 µM (inactive) and the GI50 (K562) was > 100 µM (inactive). The GI50 (SK-MEL-28) was > 100 µM (inactive), the GI50 (SF-539) was > 100 µM (inactive) and the GI50 (NCI-H23) was > 100 µM (inactive).
